Assay results published in patent US20100172836A1, “SYNTHESIS OF 18F-RADIOLABELED STYRYLPYRIDINES FROM TOSYLATE PRECURSORS AND STABLE PHARMACEUTICAL COMPOSITIONS THEREOF” (AVID RADIOPHARMACEUTICALS, INC., priority 2008, published 2010).
Converted amounts (≈) assume the structure as drawn.

Columns and labels:
Type in all cases: physicochemical
[1] = Stability of ^18F-AV-45 drug product in vials, upright and inverted, at ambient, 40° C. and 50° C. over 12 hours; details: three lots
Protocol: The stability of the drug product was evaluated on three separate manufacturing lots of ^18F-AV-45. Vials were stored upright and inverted at ambient and 40° C. temperatures, and upright at 50° C. Drug product was sampled at the specified intervals over a 12 hour testing period and evaluated for radiochemical purity and strength.

[2] = Radiochemical purity of ^18F-AV-45 Injection with and without sodium ascorbate (HPLC with radiometric detection)
Protocol: The ^18F-AV-45 radiopharmaceutical compositions of embodiments of the invention are remarkably stable to radiolysis or chemical degradation. Sodium ascorbate is used to minimize radiolysis during the purification of ^18F-AV-45 and in the final drug product solution to increase stability and shelf life. Ethanol at 1-10% (v/v) in aqueous solution aids in the solubilization of ^18F-AV-45. […] The compositions were analyzed at end-of-synthesis (EOS) using reverse HPLC, equipped with both an ultra violet (UV) detector and radiochemical detector. The radiochemical purity of ^18F-AV-45 was monitored by HPLC with radiometric detection and the purity of ^19F-AV-45 was monitored by HPLC UV detection in the drug product by Area Percent Normalization. At EOS, the radiochemical purity of the ^18F-AV-45 composition prepared without sodium ascorbate was 84% and decomposed further such that at 2 hours the purity was 80%. […] At EOS, the purity was 96% with negligible decomposition at 2 hours post EOS (purity of 95%).

[3] = Extended stability of ^18F-AV-45 Injection formulated with sodium ascorbate at 0.5% (% RCP)
Protocol: (§1) The ^18F-AV-45 radiopharmaceutical compositions of embodiments of the invention are remarkably stable to radiolysis or chemical degradation. Sodium ascorbate is used to minimize radiolysis during the purification of ^18F-AV-45 and in the final drug product solution to increase stability and shelf life. Ethanol at 1-10% (v/v) in aqueous solution aids in the solubilization of ^18F-AV-45. […] The compositions were analyzed at end-of-synthesis (EOS) using reverse HPLC, equipped with both an ultra violet (UV) detector and radiochemical detector. The radiochemical purity of ^18F-AV-45 was monitored by HPLC with radiometric detection and the purity of ^19F-AV-45 was monitored by HPLC UV detection in the drug product by Area Percent Normalization.
As noted, the radiochemical purity of the ^18F compound is maintained for up to approximately 20 hours after production.

[4] = UV purity of ^19F-AV-45 in ^18F-AV-45 Injection (HPLC UV detection at 350 nm, area percent)
Protocol: as §1

[5] = Solubility of AV-45 in the drug product composition (visual inspection, HPLC after centrifugation)
Protocol: The ^18F-AV-45 radiopharmaceutical formulation/composition was evaluated for the solubility of the non-radioactive ^19F-AV-45, which is also formed in quantities of 1-5 μg/mL during the radiosynthesis of ^18F-AV-45 due to the presence of small quantities of ^19F-fluoride from tubing, valves and other sources in the radiosynthesis system. In the absence of ethanol in the composition, particulate matter may be observed due to the low solubility of ^19F-AV-45. The addition of 10% ethanol to the radiopharmaceutical composition was, therefore, evaluated to determine if the solubility of ^19F-AV-45 was sufficient to avoid the potential of precipitate formation. […] A visible precipitate was noticeable in solutions with concentrations ≧22 μg/mL. Samples prepared at concentrations ≦20 μg/mL were evaluated by HPLC analysis following centrifugation. Samples with ≦20 μg/mL were also tested after storage for one week at ambient temperature.

[6] = lot AV4520080304, manufactured without sodium ascorbate (444 MBq/mL), EOS
[7] = lot AV4520080603, manufactured with sodium ascorbate (1036 MBq/mL), EOS

Row | Compound | RCP over 12 hours ([1]; 10% (v/v) ethanol in normal saline, 0.5% (w/v) sodium ascorbate, vials upright and inverted at ambient and 40° C., upright at 50° C.) | drift of the drug product strength ([1]; over 12 hours, all temperatures tested (ambient, 40° C., 50° C.)) | % ^18F AV-45 Purity (radiochemical) ([2]; lot AV4520080304, manufactured without sodium ascorbate (444 MBq/mL), 2-hour post EOS) | % ^18F AV-45 Purity (radiochemical) ([2]; lot AV4520080304, manufactured without sodium ascorbate (444 MBq/mL), 2-hour post EOS, listed as 18F AV-45) | % ^18F AV-45 Purity (radiochemical) [2, 6] | % ^18F AV-45 Purity (radiochemical) ([2]; lot AV4520080304, manufactured without sodium ascorbate (444 MBq/mL), EOS, listed as 18F AV-45) | % ^18F AV-45 Purity (radiochemical) ([2]; lot AV4520080603, manufactured with sodium ascorbate (1036 MBq/mL), 2-hour post EOS) | % ^18F AV-45 Purity (radiochemical) ([2]; lot AV4520080603, manufactured with sodium ascorbate (1036 MBq/mL), 2-hour post EOS, listed as 18F AV-45) | % ^18F AV-45 Purity (radiochemical) [2, 7] | % ^18F AV-45 Purity (radiochemical) ([2]; lot AV4520080603, manufactured with sodium ascorbate (1036 MBq/mL), EOS, listed as 18F AV-45) | time after production for which radiochemical purity is maintained ([3]; approximately 10% (v/v) ethanol in normal saline containing 0.5% (w/v) sodium ascorbate) | RCP (stability maintained) ([3]; composition comprising ethyl alcohol and sodium ascorbate, up to 20 hours post-production) | UV purity by area percent at 350 nm ([4]; lot AV4520080304, manufactured without sodium ascorbate (444 MBq/mL), 2-h post EOS) | UV purity by area percent at 350 nm [4, 6] | UV purity by area percent at 350 nm ([4]; lot AV4520080603, manufactured with sodium ascorbate (1036 MBq/mL), 2-h post EOS) | UV purity by area percent at 350 nm [4, 7] | solubility limit ([5]; 10% (v/v) EtOH and 0.5% (w/v) sodium ascorbate in 0.9% aqueous sodium chloride, ambient temperature) | concentrations at which a visible precipitate was noticeable ([5]; drug product composition (10% EtOH, 0.5% sodium ascorbate, 0.9% NaCl)) | change in concentration after one week of storage ([5]; samples ≦20 μg/mL, ambient temperature, HPLC)
1 | CNc1ccc(/C=C/c2ccc(OCCOCCOCC[18F])nc2)cc1 [^18F-AV-45, (E)-4-(2-(6-(2-(2-(2-[^18F]fluoroethoxy)ethoxy)ethoxy)pyridin-3-yl)vinyl)-N-methylbenzenamine] | constant | < 5% | 80% | 80% | 84% | 84% | 95% | 95% | 96% | 96% | approximately 20 hours | greater than 90% | – | – | – | – | – | – | –
2 | CNc1ccc(/C=C/c2ccc(OCCOCCOCCF)nc2)cc1 [^19F-AV-45] | – | – | – | – | – | – | – | – | – | – | – | – | 76% | 83% | 100% | 100% | 17 µg/mL (≈ 47.2 µM) | ≥ 22000 ng/mL | no change in concentration
